# Test system: IL-21 secretion from human CD4+ T cells
# Experiment: Suppression of IL-21 secretion by activated Th17 cells (ALPHALISA)
# Format: cell-based
# Settings: for IC50: 120 h, human CD4+ T cells under Th17 stimulation, 5 days; for potency in suppressing IL-21 secretion, in words: human CD4+ T cells
# From the text: IL-21 is a pro-inflammatory cytokine secreted by CD4^+ Th17 cells and is thought to serve as a T-cell growth factor playing overlapping roles with IL-2. This Example describes a study that measured the IC50 values of the indole compounds disclosed herein for suppressing IL-21 secretion from human CD4^+ T cells that had been treated with stimulatory conditions that gave rise to TH17 cells (see, e.g., Dobritsa et al., J Biomol Screen. 18(1):75-84 (2013)).
# Human CD4^+ T cells were purchased from Lonza Walkersville Inc. (Walkersville, MD). DMSO was obtained from Sigma (St. Louis, MO). Greiner cell culture plates, Gibco DMEM cell culture medium, media supplements, and antibiotics, as well as DYNABEADS Human T-Activator CD3/CD28 and R&D Systems TGF-β, IL-1β and IL-23 and Invitrogen IL-6 cytokines, were purchased through Fisher Scientific (Pittsburgh, PA). ALPHALISA assay plates and the Human Interleukin-21 ALPHALISA kit was obtained from Perkin Elmer (Boston, MA).
# Cell culture plates were pre-coated with test compounds in serial dilutions for generating a 10-point, 3-fold dose response curve with a top concentration of 1 μM or 100 nM. To do this, compounds were dissolved in DMSO and added to an ECHO qualified plate for transfer to the cell culture plate with the ECHO555. The indole compounds to be tested were dissolved in […] and wells were backfilled with DMSO so that all treatments received 0.1% DMSO final volume. Positive control (0% inhibition) wells, in which compounds were replaced with […], were included on each plate. At least 15×10^6 frozen CD4^+ T cells per plate of compounds were thawed in a 37° C. water bath, and the cells were washed twice with 10 mL of the complete medium (DMEM supplemented with 10% fetal bovine serum (FBS), 100 U/mL penicillin, and 100 μg/mL streptomycin), followed by centrifugation (250×g, 10 min). Cells were re-suspended to the desired density, and cultured in 384-well treated sterile cell culture plates in a total volume of 50 μL per well. Each plate included wells with induced and un-induced cells.
# Induced cells were activated in the complete medium with DYNABEADS Human T-Activator CD3/CD28 at a bead-to-cell ratio of 1:2.5 and stimulated with the following cytokines: transforming growth factor-β (TGF-β, 5 ng/mL), IL-6 (20 ng/mL), IL-23 (20 ng/mL), and IL-1β (10 ng/mL).
# Un-induced cells were left in complete medium with no additional supplements. Plates were incubated at 37° C., 5% CO2 for a total of 5 days. Upon completion of the 5 day incubation period, cells were spun down (1,000×g, 1 min) and supernatant was transferred to the ALPHALISA assay plate using the Mosquito HTS liquid handler (TTP Labtech Inc., Cambridge, MA).
# IL-21 levels in cell supernatants and cell-free control samples were measured using the ALPHALISA assay kit from Perkin Elmer, following the manufacturer's instructions. The assay was run at room temperature in 384-well ALPHAPLATES (cat. 6005350; Boston, MA). Briefly, immediately after transferring the cell supernatant to the assay plate, anti-IL-21 acceptor beads were added with the CERTUS FLEX liquid handler (LEAP Technologies, Morrisville, NC). The plate was sealed, spun down and incubated for 30 minutes. After incubation, the seal was removed, anti-IL-21 biotinylated antibody was added with the CERTUS FLEX, and the plate was sealed again, spun down and incubated for 60 minutes. Next, the seal was removed, streptavidin-coated donor beads were added with the CERTUS FLEX, and the plate was sealed, spun down and incubated for another 60 minutes. Finally, the seal was removed and the plate was read using the ENVISION reader (Perkin Elmer, Boston, MA) set with an excitation filter of 680 nm and an emission filter of 615 nm. Two independent IL-21 standard dilution curves were run per plate with analyte provided in the ALPHALISA kit.
# For estimation of the assay performance, Z′ values were calculated for each plate, comparing positive and negative controls. […]
Compound,IC50 [nM],"potency in suppressing IL-21 secretion, in words",times more potent than ARI-087 (IL-21 secretion assay)
"NCc1nc(-c2csc(C(=O)c3c[nH]c4c(F)cccc34)n2)no1 [ARI-146, (4-(5-(aminomethyl)-1,2,4-oxadiazol-3-yl)thiazol-2-yl)(7-fluoro-1H-indol-3-yl)methanone]",13.4,,
"CCC(=O)c1csc(C(=O)c2c[nH]c3cccc(F)c23)n1 [ARI-142, 1-(2-(4-fluoro-1H-indole-3-carbonyl)thiazol-4-yl)propan-1-one]",209,least active in suppressing IL-21 secretion,
"Nc1nnc(-c2csc(C(=O)c3c[nH]c4ccc(F)cc34)n2)o1 [ARI-148, (4-(5-amino-1,3,4-oxadiazol-2-yl)thiazol-2-yl)(5-fluoro-1H-indol-3-yl)methanone]",5.9,,
"CCC(=O)c1csc(C(=O)c2c[nH]c3c(F)cccc23)n1 [ARI-140, 1-(2-(7-fluoro-1H-indole-3-carbonyl)thiazol-4-yl)propan-1-one]",8.6,,
"Nc1nnc(-c2csc(C(=O)c3c[nH]c4cc(Cl)c(Cl)cc34)n2)o1 [ARI-120, (4-(5-amino-1,3,4-oxadiazol-2-yl)thiazol-2-yl)(5,6-dichloro-1H-indol-3-yl)methanone]",0.3,most potent,
"Cc1nc(-c2csc(C(=O)c3c[nH]c4ccccc34)n2)no1 [ARI-030, (1H-indol-3-yl)(4-(5-methyl-1,2,4-oxadiazol-3-yl)thiazol-2-yl)methanone]",40,among the least potent,
"COC(=O)c1csc(C(=O)c2c[nH]c3ccc(F)cc23)n1 [ARI-066, methyl 2-(5-fluoro-1H-indole-3-carbonyl)thiazole-4-carboxylate]",48.6,,
"CCC(=O)c1csc(C(=O)c2c[nH]c3cc(F)c(F)cc23)n1 [ARI-149, 1-(2-(5,6-difluoro-1H-indole-3-carbonyl)thiazol-4-yl)propan-1-one]",30.3,,
"Cc1nnc(-c2csc(C(=O)c3c[nH]c4ccccc34)n2)o1 [ARI-060, (1H-indol-3-yl)(4-(5-methyl-1,3,4-oxadiazol-2-yl)thiazol-2-yl)methanone]",110,among the least potent,
"Cc1noc(-c2csc(C(=O)c3c[nH]c4ccccc34)n2)n1 [ARI-031, (1H-indol-3-yl)(4-(3-methyl-1,2,4-oxadiazol-5-yl)thiazol-2-yl)methanone]",42.6,among the least potent,
"NCc1nnc(-c2csc(C(=O)c3c[nH]c4c(F)cccc34)n2)o1 [ARI-145, (4-(5-(aminomethyl)-1,3,4-oxadiazol-2-yl)thiazol-2-yl)(7-fluoro-1H-indol-3-yl)methanone]",46.9,,
"Nc1nnc(-c2csc(C(=O)c3c[nH]c4c(F)cccc34)n2)o1 [ARI-118, (4-(5-amino-1,3,4-oxadiazol-2-yl)thiazol-2-yl)(7-fluoro-1H-indol-3-yl)methanone]",0.8,most potent,about 32 times
"CCC(=O)c1csc(C(=O)c2c[nH]c3ccc(F)cc23)n1 [ARI-087, 1-(2-(5-fluoro-1H-indole-3-carbonyl)thiazol-4-yl)propan-1-one]",25.4,,
"Nc1nnc(-c2csc(C(=O)c3c[nH]c4ccccc34)n2)s1 [ARI-090, (4-(5-amino-1,3,4-thiadiazol-2-yl)thiazol-2-yl)(1H-indol-3-yl)methanone]",8.4,,
"CNC(=O)c1csc(C(=O)c2c[nH]c3ccc(Cl)cc23)n1 [ARI-049, 2-(5-chloro-1H-indole-3-carbonyl)-N-methylthiazole-4-carboxamide]",10.1,,
CNC(=O)c1csc(C(=O)c2c[nH]c3ccccc23)n1 [ARI-004],231,weak activity,
"O=C(c1nc(-c2nnco2)cs1)c1c[nH]c2ccccc12 [ARI-056, (4-(1,3,4-oxadiazol-2-yl)thiazol-2-yl)(1H-indol-3-yl)methanone]",4.9,,
"CCC(=O)c1csc(C(=O)c2c[nH]c3ccc(Cl)cc23)n1 [ARI-067, 1-(2-(5-chloro-1H-indole-3-carbonyl)thiazol-4-yl)propan-1-one]",6.3,,
"COC(=O)c1csc(C(=O)c2c[nH]c3ccc(Cl)cc23)n1 [ARI-055, methyl 2-(5-chloro-1H-indole-3-carbonyl)thiazole-4-carboxylate]",73.6,,
"CNC(=O)c1csc(C(=O)c2c[nH]c3ccc(F)cc23)n1 [ARI-065, 2-(5-fluoro-1H-indole-3-carbonyl)-N-methylthiazole-4-carboxamide]",14,,
"COC(=O)c1csc(C(=O)c2c[nH]c3ccccc23)n1 [ARI-001, ITE]",38.2,,
"CCC(=O)c1csc(C(=O)c2c[nH]c3cc(F)ccc23)n1 [ARI-143, 1-(2-(6-fluoro-1H-indole-3-carbonyl)thiazol-4-yl)propan-1-one]",18.8,,
"Nc1nnc(-c2csc(C(=O)c3c[nH]c4ccccc34)n2)o1 [ARI-083, (4-(5-amino-1,3,4-oxadiazol-2-yl)thiazol-2-yl)(1H-indol-3-yl)methanone]",0.3,most potent,
